In ChEMBL document CHEMBL4043139, “Fluoro and pentafluorothio analogs of the antitumoral curcuminoid EF24 with superior antiangiogenic and vascular-disruptive effects” (Bioorg Med Chem, 2017):
Active and inactive are the calls of the source. The calls are words filed in the database; no cut-off is given here.

Key:
[1] = system: HT-29; experiment: Upregulation of cyclin B1 expression in human HT-29 cells at 0.5 to 0.75 uM after 24 hrs by Western blot analysis; assay type: functional, cell-based
[2] = system: U-87MG ATCC; experiment: Anti-vasculogenic activity in human U87 cells assessed as reduction in formation of blood-vessel like tubular structures at 1 uM after 24 hrs by matrigel based light microscopic analysis; assay type: functional, cell-based
[3] = system: DLD-1; experiment: Cytotoxicity against human DLD1 cells after 72 hrs by MTT assay; assay type: functional, cell-based
[4] = system: HT-29; experiment: Cell cycle arrest in human HT-29 cells assessed as accumulation at G2/M phase at 1 uM after 24 hrs by propidium iodide staining based flow cytometric analysis (reference value: 15.5 +/- 0.5%); assay type: functional
[5] = system: HT-29; experiment: Cell cycle arrest in human HT-29 cells assessed as accumulation at S phase at 5 uM after 24 hrs by propidium iodide staining based flow cytometric analysis (reference value: 15.6 +/- 0.3%); assay type: functional
[6] = system: HT-29; experiment: Cell cycle arrest in human HT-29 cells assessed as accumulation at sub-G1 phase at 1 uM after 24 hrs by propidium iodide staining based flow cytometric analysis (reference value: 0.9 +/- 0.1%); assay type: functional
[7] = system: 518A2; experiment: Anti-migratory activity in human 518A2 cells assessed as wound closure at 250 nM after 24 hrs by light microscopic analysis; assay type: functional, cell-based
[8] = Toxicity in 6 days post fertilized chicken egg chorioallantoic/vitelline membrane assessed as irritation of chorioallantoic/vitelline membrane at 10 nmol administered topically measured after 24 hrs; design: species or system Gallus gallus; conditions: in vivo, topical_or_ocular
[9] = Cytotoxicity against HDFa after 72 hrs by MTT assay; assay type: cell-based; conditions: Homo sapiens
[10] = (§1) Cytotoxicity against human U87 cells after 72 hrs by MTT assay; assay type: functional, cell-based, U-87MG ATCC; conditions: U-87 MG
[11] = system: U-87MG ATCC; experiment: as §1; assay type: functional, cell-based
[12] = (§2) Cytotoxicity against human MCF7/Topo cells after 72 hrs by MTT assay; assay type: functional, cell-based
[13] = system: MCF7/Topo; experiment: as §2; assay type: functional, cell-based
[14] = system: HT-29; experiment: Cell cycle arrest in human HT-29 cells assessed as accumulation at sub-G1 phase at 2.5 uM after 24 hrs by propidium iodide staining based flow cytometric analysis (reference value: 0.9 +/- 0.1%); assay type: functional
[15] = system: HT-29; experiment: Cell cycle arrest in human HT-29 cells assessed as accumulation at sub-G1 phase at 5 uM after 24 hrs by propidium iodide staining based flow cytometric analysis (reference value: 0.9 +/- 0.1%); assay type: functional
[16] = system: 518A2; experiment: Cytotoxicity against human 518A2 cells after 72 hrs by MTT assay; assay type: functional, cell-based
[17] = species: Homo sapiens; experiment: Inhibition of NF-kappaB in human 518A2 cells assessed as reduction in p65 subunit expression at 0.5 to 1 uM after 24 hrs by Western blot analysis; assay type: cell-based
[18] = system: U-87MG ATCC; experiment: Anti-vasculogenic activity in human U87 cells assessed as reduction in formation of cord-like structures at 1 uM after 24 hrs by matrigel based light microscopic analysis; assay type: functional, cell-based
[19] = system: HT-29; experiment: Cell cycle arrest in human HT-29 cells assessed as accumulation at S phase at 1 uM after 24 hrs by propidium iodide staining based flow cytometric analysis (reference value: 15.6 +/- 0.3%); assay type: functional
[20] = system: 518A2; experiment: Anti-migratory activity in human 518A2 cells assessed as wound closure at 250 nM after 48 hrs by light microscopic analysis (reference value: 100%); assay type: functional
[21] = system: HT-29; experiment: Cell cycle arrest in human HT-29 cells assessed as accumulation at G1 phase at 2.5 uM after 24 hrs by propidium iodide staining based flow cytometric analysis (reference value: 68 +/- 0.9%); assay type: functional
[22] = system: Gallus gallus; experiment: Vascular disruptive activity in 6 days post fertilized chicken egg chorioallantoic/vitelline membrane assessed as degradation of blood vessels at 10 nmol administered topically measured after 6 hrs by stereo-microscopic analysis; assay type: functional
[23] = system: HT-29; experiment: Cell cycle arrest in human HT-29 cells assessed as accumulation at G2/M phase at 5 uM after 24 hrs by propidium iodide staining based flow cytometric analysis (reference value: 15.5 +/- 0.5%); assay type: functional
[24] = system: HT-29; experiment: Cell cycle arrest in human HT-29 cells assessed as accumulation at G2/M phase at 2.5 uM after 24 hrs by propidium iodide staining based flow cytometric analysis (reference value: 15.5 +/- 0.5%); assay type: functional
[25] = system: HT-29; experiment: Cell cycle arrest in human HT-29 cells assessed as accumulation at G1 phase at 1 uM after 24 hrs by propidium iodide staining based flow cytometric analysis (reference value: 68 +/- 0.9%); assay type: functional
[26] = species: Danio rerio; experiment: Antiangiogenic activity in 72 hrs post fertilized zebra fish embryo harboring fli1a:EGFP assessed as area of subintestinal veins at 10 uM after 48 hrs by fluorescence microscopic analysis (reference value: 100%); assay type: functional
[27] = system: U-87MG ATCC; experiment: Anti-vasculogenic activity in human U87 cells assessed as reduction in formation of small stray colonies at 1 uM after 24 hrs by matrigel based light microscopic analysis; assay type: functional, cell-based
[28] = system: HCT-116; experiment: Cytotoxicity against human HCT116 cells after 72 hrs by MTT assay; assay type: functional, cell-based
[29] = system: HT-29; experiment: Cell cycle arrest in human HT-29 cells assessed as accumulation at S phase at 2.5 uM after 24 hrs by propidium iodide staining based flow cytometric analysis (reference value: 15.6 +/- 0.3%); assay type: functional
[30] = (§3) Cytotoxicity against human KB-V1/Vbl cells after 72 hrs by MTT assay; assay type: functional, cell-based
[31] = system: KB-V1/Vbl; experiment: as §3; assay type: functional, cell-based
[32] = system: HT-29; experiment: Cytotoxicity against human HT-29 cells after 72 hrs by MTT assay; assay type: functional, cell-based
[33] = system: HT-29; experiment: Cell cycle arrest in human HT-29 cells assessed as accumulation at G1 phase at 5 uM after 24 hrs by propidium iodide staining based flow cytometric analysis (reference value: 68 +/- 0.9%); assay type: functional
[34] = system: Gallus gallus; experiment: Vascular disruptive activity in 6 days post fertilized chicken egg assessed as area covered by blood vessels at 10 nmol administered topically measured after 6 hrs by light microscopic analysis relative to control; assay type: functional
[35] = Cytotoxicity against human U87 cells assessed as cell viability at 10 nmol after 24 hrs by MTT assay relative to control; assay type: cell-based, U-87MG ATCC; conditions: read-out: Activity
[36] = system: PANC-1; experiment: Cytotoxicity against human PANC1 cells after 72 hrs by MTT assay; assay type: functional, cell-based

CCN1C/C(=C\c2ccc(S(F)(F)(F)(F)F)cc2)C(=O)/C(=C/c2ccc(S(F)(F)(F)(F)F)cc2)C1
Activity [1]: Active | Activity [2]: inactive | Activity [3]: Dose-dependent effect | IC50 ([3]; DLD-1, 72 h): 330 nM | Activity [4]: 32.1% | Activity [5]: 16.5% | Activity [6]: 13.2% | Activity [7]: Active | Activity [8]: Toxic | IC50 [9]: 3200 nM | IC50 [10]: 930 nM | Activity [11]: Dose-dependent effect | IC50 [12]: 400 nM | Activity [13]: Dose-dependent effect | Activity [14]: 12.8% | Activity [15]: 16.6% | Activity [16]: Dose-dependent effect | IC50 ([16]; 518A2, 72 h): 990 nM | inhibition [17]: Active | Activity [18]: inactive | Activity [19]: 8.1% | Activity [20]: 77% | Activity [21]: 43.1% | Activity [22]: Active | Activity [23]: 31% | Activity [24]: 32.1% | Activity [25]: 46.7% | Activity [26]: 51% | Activity [27]: inactive | Activity [28]: Dose-dependent effect | IC50 ([28]; HCT-116, 72 h): 240 nM | Activity [29]: 12% | IC50 [30]: 640 nM | Activity [31]: Dose-dependent effect | Activity [32]: Dose-dependent effect | IC50 ([32]; HT-29, 72 h): 290 nM | Activity [33]: 35.9% | Activity [34]: 67% | viability at 24 h, 10 nmol [35]: > 85% | Activity [36]: Dose-dependent effect | IC50 ([36]; PANC-1, 72 h): 1100 nM
